Marks after values point to notes of the source that are not given here.
Columns and labels:
Format in all cases: in vivo, nude/nude mice
SW1573 cells = experiment: SW1573 tumor bearing mice, single agents and combination; conditions: for tumor growth inhibition: Day 22, Compound 478 100 mg/kg or RMC-4550 30 mg/kg p.o. daily; for Average Tumor Volume: Compound 478 100 mg/kg, RMC-4550 30 mg/kg
Experimental: (§1) Immunocompromised nude/nude mice are inoculated in the right hind flank with cells or patient derived tumor samples harboring a KRas G12C mutation. When tumor volumes reach between 200-400 mm^3 in size, the mice are divided into four groups of 5-12 mice each. The first group is administered vehicle only. […] The fourth group is administered the single agent dose of the KRas G12C inhibitor in combination with the single agent dose of the SHP-2 inhibitor. […] Tumor volumes are measured using a caliper every two-three days and tumor volumes are calculated by the formula: 0.5×[…].
(§2) 20 nude/nude mice per study were inoculated in the right hind limb with 5×10^6 SW1573 cells, KYSE410 cells or H358 cells.

KYSE410 cells = experiment: KYSE410 tumor bearing mice, single agents and combination; conditions: for tumor growth inhibition: Day 22, Compound 478 100 mg/kg or RMC-4550 30 mg/kg p.o. daily; for Average Tumor Volume: Compound 478 100 mg/kg, RMC-4550 30 mg/kg
Experimental: as §1, §2

H358 cells = experiment: H358 tumor bearing mice, single agents and combination
Experimental: as §1, §2

H2122 cells = experiment: H2122 tumor bearing mice, single agents and combination; conditions: for tumor growth inhibition: Day 29, Compound 478 100 mg/kg or RMC-4550 30 mg/kg p.o. daily; for Average Tumor Volume: Compound 478 100 mg/kg, RMC-4550 30 mg/kg
Experimental: as §1
Similarly, 25 nude/nude mice were inoculated in the right hind limb with 5×10^6 H2122 cells.

[1] = Study Day 0, p.o. daily, 5 mice
[2] = Study Day 0, p.o. daily, Compound 478 100 mg/kg, RMC-4550 30 mg/kg, 5 mice
[3] = Study Day 4, p.o. daily, Compound 478 100 mg/kg, RMC-4550 30 mg/kg
[4] = Study Day 6, p.o. daily, Compound 478 100 mg/kg, RMC-4550 30 mg/kg
[5] = Study Day 8, p.o. daily, Compound 478 100 mg/kg, RMC-4550 30 mg/kg
[6] = Study Day 12, p.o. daily, Compound 478 100 mg/kg, RMC-4550 30 mg/kg
[7] = Study Day 15, p.o. daily, Compound 478 100 mg/kg, RMC-4550 30 mg/kg
[8] = Study Day 18, p.o. daily, Compound 478 100 mg/kg, RMC-4550 30 mg/kg
[9] = Study Day 20, p.o. daily, Compound 478 100 mg/kg, RMC-4550 30 mg/kg
[10] = Study Day 22, p.o. daily, Compound 478 100 mg/kg, RMC-4550 30 mg/kg, RMC-4550 single agent: dosing was stopped after Day 22

## C=C(F)C(=O)N1CCN(c2nc(OC[C@@H]3CCCN3C)nc3c2CCN(c2cccc4cccc(Cl)c24)C3)C[C@@H]1CC#N [Compound 478]
SW1573 cells
  tumor growth inhibition: 81%
SW1573 cells; [1]
  Average Tumor Volume: 335 mm^3
SW1573 cells; Study Day 2, p.o. daily
  Average Tumor Volume: 281 mm^3
SW1573 cells; Study Day 4, p.o. daily
  Average Tumor Volume: 318 mm^3
SW1573 cells; Study Day 9, p.o. daily
  Average Tumor Volume: 336 mm^3
SW1573 cells; Study Day 14, p.o. daily
  Average Tumor Volume: 363 mm^3
SW1573 cells; Study Day 21, p.o. daily
  Average Tumor Volume: 419 mm^3
SW1573 cells; Study Day 22, p.o. daily
  Average Tumor Volume: 433 mm^3
KYSE410 cells
  tumor growth inhibition: 93%
KYSE410 cells; [1]
  Average Tumor Volume: 312 mm^3
KYSE410 cells; Study Day 2, p.o. daily
  Average Tumor Volume: 320 mm^3
KYSE410 cells; Study Day 4, p.o. daily
  Average Tumor Volume: 302 mm^3
KYSE410 cells; Study Day 7, p.o. daily
  Average Tumor Volume: 281 mm^3
KYSE410 cells; Study Day 9, p.o. daily
  Average Tumor Volume: 265 mm^3
KYSE410 cells; Study Day 11, p.o. daily
  Average Tumor Volume: 277 mm^3
KYSE410 cells; Study Day 14, p.o. daily
  Average Tumor Volume: 340 mm^3
KYSE410 cells; Study Day 18, p.o. daily
  Average Tumor Volume: 349 mm^3
KYSE410 cells; Study Day 21, p.o. daily
  Average Tumor Volume: 384 mm^3
KYSE410 cells; Study Day 22, p.o. daily
  Average Tumor Volume: 359 mm^3
H358 cells; Day 22, Compound 478 100 mg/kg, alone or with RMC-4550 30 mg/kg, p.o. daily
  tumor regression: 68%
H358 cells; [2]
  Average Tumor Volume: 335 mm^3
H358 cells; [3]
  Average Tumor Volume: 277 mm^3
H358 cells; [4]
  Average Tumor Volume: 244 mm^3
H358 cells; [5]
  Average Tumor Volume: 200 mm^3
H358 cells; [6]
  Average Tumor Volume: 156 mm^3
H358 cells; [7]
  Average Tumor Volume: 133 mm^3
H358 cells; [8]
  Average Tumor Volume: 120 mm^3
H358 cells; [9]
  Average Tumor Volume: 113 mm^3
H358 cells; [10]
  Average Tumor Volume: 109 mm^3
H358 cells; Study Day 25, p.o. daily, Compound 478 100 mg/kg, RMC-4550 30 mg/kg
  Average Tumor Volume: 90 mm^3
H358 cells; Study Day 27, p.o. daily, Compound 478 100 mg/kg, RMC-4550 30 mg/kg
  Average Tumor Volume: 92 mm^3
H358 cells; Study Day 29, Compound 478 100 mg/kg, RMC-4550 30 mg/kg p.o.
  Average Tumor Volume: 81 mm^3
H358 cells; Study Day 32, Compound 478 100 mg/kg, RMC-4550 30 mg/kg p.o.
  Average Tumor Volume: 82 mm^3
H358 cells; Study Day 34, Compound 478 100 mg/kg, RMC-4550 30 mg/kg p.o.
  Average Tumor Volume: 84 mm^3
H358 cells; Study Day 36, Compound 478 100 mg/kg, RMC-4550 30 mg/kg p.o.
  Average Tumor Volume: 81 mm^3
H358 cells; Study Day 39, Compound 478 100 mg/kg, RMC-4550 30 mg/kg p.o.
  Average Tumor Volume: 73 mm^3
H358 cells; Study Day 41, Compound 478 100 mg/kg, RMC-4550 30 mg/kg p.o.
  Average Tumor Volume: 58 mm^3
H2122 cells
  tumor growth inhibition: 93%
H2122 cells; Study Day 11, p.o. daily
  Average Tumor Volume: 382 mm^3
H2122 cells; Study Day 21, p.o. daily
  Average Tumor Volume: 430 mm^3

## Cc1nc(N2CCC3(CC2)CO[C@@H](C)[C@H]3N)c(CO)nc1-c1cccc(Cl)c1Cl [RMC-4550]
SW1573 cells
  tumor growth inhibition: 68%
SW1573 cells; [1]
  Average Tumor Volume: 336 mm^3
SW1573 cells; Study Day 2, p.o. daily
  Average Tumor Volume: 280 mm^3
SW1573 cells; Study Day 4, p.o. daily
  Average Tumor Volume: 286 mm^3
SW1573 cells; Study Day 7, p.o. daily
  Average Tumor Volume: 336 mm^3
SW1573 cells; Study Day 9, p.o. daily
  Average Tumor Volume: 305 mm^3
SW1573 cells; Study Day 11, p.o. daily
  Average Tumor Volume: 326 mm^3
SW1573 cells; Study Day 14, p.o. daily
  Average Tumor Volume: 418 mm^3
SW1573 cells; Study Day 16, p.o. daily
  Average Tumor Volume: 421 mm^3
SW1573 cells; Study Day 18, p.o. daily
  Average Tumor Volume: 375 mm^3
SW1573 cells; Study Day 21, p.o. daily
  Average Tumor Volume: 392 mm^3
SW1573 cells; Study Day 22, p.o. daily
  Average Tumor Volume: 510 mm^3
KYSE410 cells
  tumor growth inhibition: 90%
KYSE410 cells; [1]
  Average Tumor Volume: 314 mm^3
KYSE410 cells; Study Day 2, p.o. daily
  Average Tumor Volume: 311 mm^3
KYSE410 cells; Study Day 4, p.o. daily
  Average Tumor Volume: 316 mm^3
KYSE410 cells; Study Day 7, p.o. daily
  Average Tumor Volume: 299 mm^3
KYSE410 cells; Study Day 9, p.o. daily
  Average Tumor Volume: 316 mm^3
KYSE410 cells; Study Day 11, p.o. daily
  Average Tumor Volume: 309 mm^3
KYSE410 cells; Study Day 14, p.o. daily
  Average Tumor Volume: 309 mm^3
KYSE410 cells; Study Day 18, p.o. daily
  Average Tumor Volume: 303 mm^3
KYSE410 cells; Study Day 21, p.o. daily
  Average Tumor Volume: 372 mm^3
KYSE410 cells; Study Day 22, p.o. daily
  Average Tumor Volume: 377 mm^3
H358 cells; Day 22, RMC-4550 30 mg/kg p.o. daily
  tumor growth inhibition: 22%
H358 cells; [2]
  Average Tumor Volume: 333 mm^3
H358 cells; [3]
  Average Tumor Volume: 336 mm^3
H358 cells; [4]
  Average Tumor Volume: 343 mm^3
H358 cells; [5]
  Average Tumor Volume: 372 mm^3
H358 cells; [6]
  Average Tumor Volume: 388 mm^3
H358 cells; [7]
  Average Tumor Volume: 399 mm^3
H358 cells; [8]
  Average Tumor Volume: 422 mm^3
H358 cells; [9]
  Average Tumor Volume: 454 mm^3
H358 cells; [10]
  Average Tumor Volume: 492‡ mm^3
H2122 cells
  tumor growth inhibition: 47%
H2122 cells; [1]
  Average Tumor Volume: 350 mm^3
H2122 cells; Study Day 4, p.o. daily
  Average Tumor Volume: 515 mm^3
H2122 cells; Study Day 6, p.o. daily
  Average Tumor Volume: 578 mm^3
H2122 cells; Study Day 8, p.o. daily
  Average Tumor Volume: 614 mm^3
H2122 cells; Study Day 11, p.o. daily
  Average Tumor Volume: 683 mm^3
H2122 cells; Study Day 13, p.o. daily
  Average Tumor Volume: 750 mm^3
H2122 cells; Study Day 15, p.o. daily
  Average Tumor Volume: 856 mm^3
H2122 cells; Study Day 18, p.o. daily
  Average Tumor Volume: 880 mm^3
H2122 cells; Study Day 21, p.o. daily
  Average Tumor Volume: 916 mm^3
H2122 cells; Study Day 24, p.o. daily
  Average Tumor Volume: 1026 mm^3
H2122 cells; Study Day 27, p.o. daily
  Average Tumor Volume: 1137 mm^3
H2122 cells; Study Day 29, p.o. daily
  Average Tumor Volume: 1166 mm^3
